These results are taken from patent publication US4029811A, “Certain antiinflammatory dihydrobenzofuran and dihydronaphthofuran acetic acid compounds” (SCHIAPPARELLI - Stabilimenti Chimici Farmaceutici Riuniti …, priority 1974, dated 1977).

“Also recorded” adds a separate entry of the source. Where a name gives a salt, the structure may show the parent alone.

For data set [1], the system named is rat hind paw edema. As to the kind of experiment: Carrageenin-induced edema assay. It counts as in vivo. Conditions: po, 3 hours after carrageenin, tested compounds as sodium salts; for inhibition in vivo at 200 mg/kg: 200 mg/Kg/os; for inhibition in vivo at 12.5 mg/kg: 12.5 mg/Kg/os; for inhibition in vivo at 25 mg/kg: 25 mg/Kg/os; for inhibition in vivo at 50 mg/kg: 50 mg/Kg/os; for inhibition in vivo at 100 mg/kg: 100 mg/Kg/os; for inhibition in vivo at 10 mg/kg: 10 mg/Kg/os; for inhibition in vivo at 30 mg/kg: 30 mg/Kg/os; for inhibition in vivo at 90 mg/kg: 90 mg/Kg/os. The procedure: Paw edema was measured by fluid displacement when the paw was immersed in a cup of mercury.
Background: Carrageenan injected into the paw causes an acute inflammation.

Data set [2] has as its system abdominal stretching. Nature of the data set: Anti-writhing assay (acetic acid). It counts as in vivo, mouse. Conditions: 200 mg/Kg p.o., 20 minutes before 3% acetic acid i.p.; counted 20 minutes. Here is the method: Male albino Swiss Mice, each weighing 20 to 22 g, were used. The animals were fasted for 18 hours before pharmacological treatment. […] The number of abdominal stretching was counted for 20 minutes following the acetic acid injection.

For data set [3], the system named is experimental polyarthritis. As to the kind of experiment: Experimental polyarthritis assay (modified Freund's adjuvant). The data set is classed as in vivo, rat. Conditions: for Activity in experimental polyarthritis assay: 14 days, paw volume, FIG. 1. Here is the method:
Three groups of 10 Wistar rats were used. […] Pharmacological treatment was carried out for 14 days, while the third group served as control. Paw edema was measured as for the carrageenin-induced edema. Results are reported in FIG. 1 as % increase of paw volume immediately before modified Freund's adjuvant injection.

For data set [4], the system named is Wistar rats. Nature of the data set: Teratogenic studies in Wistar rats. The data set is classed as in vivo. Conditions: 30 mg/Kg and 60 mg/Kg orally. Here is the method: Tests in the attempt of discovering any teratogenic and fetal-toxicity effects have been carried out in conventional manner on Wistar rats, to which compound (I) has been administered orally at dosages of 30 mg/Kg and 60 mg/Kg.

The test system of data set [5] is painful osteoarticular processes. Nature of the data set: Clinical tests in patients with painful osteoarticular processes. The data set is classed as in vivo, human. Here is the method:
14 patients were treated with a dosage of 100 mg three times daily, during a period of three days; in further seven cases the treatment was 200--300 mg daily during 8-10 days. The remaining four patients received a dosage of 200 mg three times daily during periods of three to five days.

Data set [6] deals with Wistar rats. Nature of the data set: Long-term toxicity (60 days oral) in Wistar rats. Conditions: 60 mg/kg daily orally. It counts as in vivo. The procedure:
Compound (I) has been tested by employing 40 Wistar rats subdivided into 2 groups of 20 animals (10 male and 10 female). One of the groups (reference group) was fed in conventional manner, while 60 mg/kg daily of the compound on test were administered orally to the animals of the other group. The treatment was continued during 60 days: every 15 days the following aspects were checked: body weight, blood pressure (by incruent method), cardiac frequency, hemochromocytometric examination and urine analysis.
At the end of treatment, all animals have been sacrificed and subjected to further examinations (hemochromocytometric, serum-biochemical, enzymatic, electrolytic and autopsic examination).

Where [7] appears, read: case 1, 100 mg three times daily.
Where [8] appears, read: case 1, lumbosacral arthrosis, 100 mg three times daily.

Take `CCC1CCc2cc(CC(=O)O)ccc2O1` (stereo not drawn) [(II), 2-ethylchroman-6-yl-acetic acid]: the inhibition in vivo at 200 mg/kg in data set [1] amounted to 31%. In addition, the “% Stretching decrease from the control” value in data set [2] amounted to 42%.
Consider `O=C(O)Cc1ccc2c3c(ccc2c1)OCC3` [(III), 1,2-Dihydronaphtho [2,1-b] furan-7-acetic acid], for which, in data set [1], the inhibition in vivo at 200 mg/kg was found to be 51%. Moreover, the “Activity relative to compound (I)” value in data set [3] (same conditions as for compound (I)) is on record as “quite analogous to the activity of compound (I)”. In addition, the “% Stretching decrease from the control” value in data set [2] was 73%.
As for `O=C(O)Cc1ccc2c3c(ccc2c1)OCCC3` [(IV), 1H-2,3-Dihydronaphtho [2,1-b]pyran-8-yl-acetic acid], the inhibition in vivo at 200 mg/kg in data set [1] is 64%. In addition, the “% Stretching decrease from the control” value in data set [2] was found to be 62%.
In the case of `CCC1Cc2cc(C(C)C(=O)O)ccc2O1` (stereo not drawn) [(VI), 2(2-Ethyl-2,3-dihydrobenzofuran-5-yl)-propionic acid], in data set [1], the inhibition in vivo at 12.5 mg/kg worked out at 19.3%, the inhibition in vivo at 25 mg/kg was determined as 41.6%, the inhibition in vivo at 50 mg/kg was found to be 43.9% and the inhibition in vivo at 100 mg/kg is 59.1%.
As to `CCC1CCc2cc(C(C)C(=O)O)ccc2O1` (stereo not drawn) [(VII), 2(2-Ethylchroman-6-yl)-propionic acid], in data set [1], the inhibition in vivo at 12.5 mg/kg came to 28.7%, the inhibition in vivo at 25 mg/kg was determined as 50.2%, the inhibition in vivo at 50 mg/kg is 31.2% and the inhibition in vivo at 100 mg/kg was determined as 45.9%.
As to `CCC1Cc2cc(CC(=O)O)ccc2O1` (stereo not drawn) [Compound (I), 2,3-dihydro-2-ethylbenzofuran-5-yl-acetic acid], the inhibition in vivo at 10 mg/kg in data set [1] turned out to be 28%. The inhibition in vivo at 30 mg/kg in data set [1] turned out to be 46%. In addition, the inhibition in vivo at 90 mg/kg in data set [1] was determined as 58%. The inhibition in vivo at 200 mg/kg in data set [1] stood at 68%. The “Pregnancy disturbances and/or toxic effects on fetus” value in data set [4] was “No. pregnancy disturbances and/or toxic effects on fetus have been observed”. Besides, the “Activity in experimental polyarthritis assay” value in data set [3] (200 mg/Kg p.o.) is reported as “significant activity”. Also, the “Activity versus reference drug (phenylbutazone)” value in data set [3] (200 mg/Kg p.o., at least in the first 9 days of treatment) is “superior to the reference drug”. Also, the Side effects result is listed as “no side effects having been observed” in data set [5] (25 patients, oral); “no side effects having been observed” in data set [5] (setting [7]); “No side effect” in data set [5] (case 2, 100 mg three times daily, eight days); “No side effect” in data set [5] (case 3, 100 mg three times daily, seven days); “no side effect” in data set [5] (case 4, 100 then 200 mg three times daily); “without any side effect” in data set [5] (case 5, 100 mg three times daily, five days). Also, the Tolerability result in data set [5] (25 patients, oral) is “always well tolerated”; in data set [5] (setting [7]), “exceedingly well tolerated”. Besides, in data set [5] (25 patients, oral, overall), the Antalgic-antiinflammatory effect entry is on record as “significant antalgic-antiinflammatory effect”. In addition, in data set [5] (setting [8]), the “Clinical response, first day” value is on record as “fair symptomatologic relief”. In addition, the “Clinical response, second day” value in data set [5] (setting [8]) was “improvement persists on the second day with an increased possibility for movement and gait”. In data set [5] (setting [8]), the “Clinical response, third day” value is “the painful pattern has almost totally regressed”. Also, the Clinical response entry in data set [5] (case 2, polyarthrosis, 100 mg three times daily, eight days) was “clear symptomatologic relief; gait is easier on the 4th and 5th day and mobility of the knee joint is improved; also recorded: Clearly positive clinical appreciation”; in data set [5] (case 3, cervical arthrosis, 100 mg three times daily, seven days), “The patient reports relief; disappearance of cephalgia, possibility of rotating the cervical column initially blocked by pain; also recorded: almost total regression of algic aggravation”; in data set [5] (case 4, bilateral coxo-arthrosis, 100 mg three times daily days 1-2, 200 mg three times daily day 3) it was “satisfactory response of the painful pattern with a progressive reduction in algic symptomatology; also recorded: Appreciably favourable clinical response”; in data set [5] (case 5, spinal arthrosis, 100 mg three times daily, five days), “good antalgic effect; improved freedom of active and passive movements of the spinal column”. Besides, the “Antalgic-antiinflammatory effect judged slight” value in data set [5] (five of 25 cases) is listed as 20%. Moreover, the “Antalgic-antiinflammatory effect judged good or very good” value in data set [5] (seventeen of 25 cases) amounted to 68%. For the same compound, the “Antalgic-antiinflammatory effect judged none” value in data set [5] (three of 25 cases) is recorded as 12%. Besides, the “% Stretching decrease from the control” value in data set [2] is recorded as 81%. Besides, in data set [6] (60 days), the Food consumption result is given as “The food consumption was regular”. The Lethal cases entry in data set [6] (60 days) is given as “No lethal cases have been observed”. In data set [6] (60 days, conclusion), the “Alterations induced by prolonged administration” value is reported as “does not induce biologically relevant alterations”. In data set [6] (at end of 60 days treatment), the “Hemochromocytometric, serum-biochemical, enzymatic, electrolytic and autopsic examination” value is on record as “No significant variations have been observed”. The “Body weight increase, blood pressure, cardiac frequency, hemochromocytometric examination and urine analysis” value in data set [6] (checked every 15 days during 60 days, versus reference group) is given as “No differences have been noted”.
In the case of `CC(C)Cc1ccc(C(C)C(=O)O)cc1` (stereo not drawn) [Ibuprofen, 2-(4-isobutyl-phenyl)-propionic acid-sodium salt, reference compound], in data set [1], the inhibition in vivo at 12.5 mg/kg is 42.1%, the inhibition in vivo at 25 mg/kg was found to be 38.1%, the inhibition in vivo at 50 mg/kg is 52.1% and the inhibition in vivo at 100 mg/kg is 46.9%.
For `CCCCC1C(=O)N(c2ccccc2)N(c2ccccc2)C1=O` [Phenylbutazone, reference compound], in data set [1], the inhibition in vivo at 10 mg/kg came to 8%, the inhibition in vivo at 30 mg/kg turned out to be 17%, the inhibition in vivo at 90 mg/kg is 20% and the inhibition in vivo at 200 mg/kg was 42%. For the same compound, the “Activity in experimental polyarthritis assay” value in data set [3] (200 mg/Kg p.o.) is “significant activity”. In addition, the “% Stretching decrease from the control” value in data set [2] is recorded as 43%.

The term inhibition in vivo denotes the change of the read-out against control, counted positive when it falls.
